The source made the active and inactive calls. The calls are words filed in the database; no cut-off is given here.
Tests used:
Protein smoothened [1] = target: Protein smoothened (Mus musculus, UniProt P56726); assay: (§1) Antagonist activity at SMO in mouse NIH/3T3 cells harboring Gli-responsive firefly luciferase gene assessed as inhibition of SAG-induced response preincubated for 2 hrs followed by SAG addition and measured after 24 hrs by Bright-Glo luciferase assay; type: cell-based
Protein smoothened [2] = target: T1, Protein smoothened (Homo sapiens, UniProt Q99835); assay: Binding affinity to recombinant human SMO at 0.1 to 20 uM preincubated for 1 hr followed by 365 nm UV irradiation for 20 mins and subsequent addition of TAMRA-N3 measured after 1 hr by fluorescence-based SDS-PAGE analysis
Protein smoothened [3] = target: T1, Protein smoothened; assay: Displacement of BODIPY-LY from SMO (unknown origin) expressed in HEK293F cells measured after 15 mins by flow cytometric analysis; type: cell-based
Protein smoothened [4] = target: T1, Protein smoothened; assay: Binding affinity to recombinant SMO Ala345 residue (unknown origin) at 20 uM preincubated for 3 hrs followed by UV irradiation for 15 mins by MS/MS analysis
Protein smoothened [5] = target: T1, Protein smoothened; assay: Binding affinity to recombinant SMO Gly529 residue (unknown origin) assessed as modification of INLFAMFGTGIAMSTWVWTKATLLIWRR peptide at 20 uM preincubated for 3 hrs followed by UV irradiation for 15 mins by MS/MS analysis
Protein smoothened [6] = target: T1, Protein smoothened; assay: Binding affinity to recombinant SMO His103 residue (unknown origin) at 20 uM preincubated for 3 hrs followed by UV irradiation for 15 mins by MS/MS analysis
Protein smoothened [7] = target: T1, Protein smoothened; assay: Binding affinity to recombinant SMO Thr528 residue (unknown origin) assessed as modification of INLFAMFGTGIAMSTWVWTKATLLIWRR peptide at 20 uM preincubated for 3 hrs followed by UV irradiation for 15 mins by MS/MS analysis
Protein smoothened [8] = target: T1, Protein smoothened; assay: Binding affinity to recombinant SMO Gly527 residue (unknown origin) assessed as modification of INLFAMFGTGIAMSTWVWTKATLLIWRR peptide at 20 uM preincubated for 3 hrs followed by UV irradiation for 15 mins by MS/MS analysis
Protein smoothened [9] = target: T1, Protein smoothened; assay: Binding affinity to recombinant SMO Glu158 residue (unknown origin) at 20 uM preincubated for 3 hrs followed by UV irradiation for 15 mins by MS/MS analysis
Protein smoothened [10] = target: T1, Protein smoothened; assay: Binding affinity to recombinant SMO Thr349 residue (unknown origin) at 20 uM preincubated for 3 hrs followed by UV irradiation for 15 mins by MS/MS analysis
Protein smoothened [11] = target: T1, Protein smoothened; assay: Binding affinity to recombinant SMO Glu135 residue (unknown origin) at 20 uM preincubated for 3 hrs followed by UV irradiation for 15 mins by MS/MS analysis
Protein smoothened [12] = target: T1, Protein smoothened; assay: Binding affinity to recombinant SMO Lys186 residue (unknown origin) at 20 uM preincubated for 3 hrs followed by UV irradiation for 15 mins by MS/MS analysis
Protein smoothened [13] = target: T1, Protein smoothened; assay: Binding affinity to recombinant SMO Glu518 residue (unknown origin) assessed as modification of NRPSLLVEK (511 to 519 residue) at 20 uM preincubated for 3 hrs followed by UV irradiation for 15 mins by MS/MS analysis
Protein smoothened [14] = target: T1, Protein smoothened; assay: Binding affinity to recombinant SMO Lys510 residue (unknown origin) at 20 uM preincubated for 3 hrs followed by UV irradiation for 15 mins by MS/MS analysis
Protein smoothened [15] = target: T1, Protein smoothened; assay: Binding affinity to recombinant SMO Leu498 residue (unknown origin) at 20 uM preincubated for 3 hrs followed by UV irradiation for 15 mins by MS/MS analysis
[16] = target: Protein smoothened (Mus musculus) (UniProt P56726); assay: as §1; type: cell-based
Chain of Protein smoothened (Mus musculus) (P56726 whole entry): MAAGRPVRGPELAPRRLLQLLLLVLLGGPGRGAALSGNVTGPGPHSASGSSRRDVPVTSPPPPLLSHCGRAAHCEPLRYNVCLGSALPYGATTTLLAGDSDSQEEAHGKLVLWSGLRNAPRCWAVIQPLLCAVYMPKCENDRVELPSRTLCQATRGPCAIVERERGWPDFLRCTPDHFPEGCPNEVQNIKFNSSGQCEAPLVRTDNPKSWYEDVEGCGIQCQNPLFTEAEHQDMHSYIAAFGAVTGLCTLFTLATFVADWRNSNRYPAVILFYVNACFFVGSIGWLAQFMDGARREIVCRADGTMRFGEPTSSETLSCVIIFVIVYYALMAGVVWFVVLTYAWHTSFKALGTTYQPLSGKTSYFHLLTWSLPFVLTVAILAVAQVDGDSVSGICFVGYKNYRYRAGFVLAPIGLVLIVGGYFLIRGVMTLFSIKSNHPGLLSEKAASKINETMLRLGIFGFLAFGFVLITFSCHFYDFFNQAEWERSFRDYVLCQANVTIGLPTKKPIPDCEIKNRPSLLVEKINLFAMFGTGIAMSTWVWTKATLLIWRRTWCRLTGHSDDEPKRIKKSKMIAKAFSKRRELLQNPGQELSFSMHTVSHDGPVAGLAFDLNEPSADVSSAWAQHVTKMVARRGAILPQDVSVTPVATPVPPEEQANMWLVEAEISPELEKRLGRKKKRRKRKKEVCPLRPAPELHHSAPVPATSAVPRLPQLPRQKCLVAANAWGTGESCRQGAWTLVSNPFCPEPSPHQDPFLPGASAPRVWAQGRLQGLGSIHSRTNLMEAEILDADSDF

Chain of Protein smoothened (Mus musculus, UniProt P56726) (P56726 whole entry): as above
T1 sequence (Q99835 whole entry): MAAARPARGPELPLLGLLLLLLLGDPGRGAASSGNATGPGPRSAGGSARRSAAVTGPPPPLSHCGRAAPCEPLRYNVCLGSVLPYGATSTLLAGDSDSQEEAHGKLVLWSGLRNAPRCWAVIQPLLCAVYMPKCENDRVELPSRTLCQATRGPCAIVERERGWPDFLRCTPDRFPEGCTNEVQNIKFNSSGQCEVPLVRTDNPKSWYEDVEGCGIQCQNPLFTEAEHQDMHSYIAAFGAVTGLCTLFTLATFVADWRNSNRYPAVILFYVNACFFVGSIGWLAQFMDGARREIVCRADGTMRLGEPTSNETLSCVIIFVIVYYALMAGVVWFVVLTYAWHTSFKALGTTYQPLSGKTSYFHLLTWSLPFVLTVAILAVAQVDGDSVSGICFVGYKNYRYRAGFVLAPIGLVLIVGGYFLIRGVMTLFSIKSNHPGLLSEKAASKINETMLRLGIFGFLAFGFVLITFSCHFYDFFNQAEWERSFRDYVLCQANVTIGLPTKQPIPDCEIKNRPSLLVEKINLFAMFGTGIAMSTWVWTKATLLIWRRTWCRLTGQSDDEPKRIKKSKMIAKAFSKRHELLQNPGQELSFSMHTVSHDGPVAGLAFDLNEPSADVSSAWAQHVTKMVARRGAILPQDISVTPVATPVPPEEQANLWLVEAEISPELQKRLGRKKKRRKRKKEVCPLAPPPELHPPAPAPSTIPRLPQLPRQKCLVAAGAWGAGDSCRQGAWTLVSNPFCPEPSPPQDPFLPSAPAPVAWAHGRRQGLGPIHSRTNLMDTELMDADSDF

Structure (SMILES) | IC50 (Protein smoothened [1]) [µM] | Ki (Protein smoothened [3]) [µM] | also measured
C[C@H]1CN(c2ccc(Cl)cc2)C(=O)N1Cc1ccccc1 | 4.55 |  | 
C#CCOc1ccc(N2C(=O)[C@H](C)N(Cc3ccc(N=[N+]=[N-])cc3)C2=O)cc1 | 0.031 | 0.028 | Activity (Protein smoothened [2]): Active
C[C@H]1C(=O)N(c2c(F)c(F)c(F)c(F)c2F)C(=O)N1Cc1ccccc1 | 1.53 |  | 
C[C@H]1C(=O)N(c2ccc(Cl)cc2)C(=O)N1Cc1ccc(N=[N+]=[N-])cc1 | 0.003 | 0.045 | Activity (Protein smoothened [4]): Active; Activity (Protein smoothened [5]): Active; Activity (Protein smoothened [6]): Active; Activity (Protein smoothened [7]): Active; Activity (Protein smoothened [8]): Active; Activity (Protein smoothened [9]): Active; Activity (Protein smoothened [10]): Active
FC(F)(F)Oc1ccc(-c2ccnc(Nc3ccc4[nH]ncc4c3)n2)cc1 |  | 0.03 | 
C[C@H]1C(=O)N(c2ccc(Cl)cc2)C(=O)N1CC1CCCCC1 | 0.383 |  | 
C[C@H]1C(=O)N(Cc2ccc(Cl)cc2)C(=O)N1Cc1ccccc1 | 8.1 |  | 
C[C@H]1C(=O)N(c2ccc(Cl)cc2)C(=O)N1c1ccccc1 | 0.547 |  | 
C[C@H]1C(=O)N(c2ccc(Cl)cc2)C(=O)N1Cc1c(F)c(F)c(F)c(F)c1F | 7.38 |  | 
C[C@H]1C(=O)N(c2ccc(N=[N+]=[N-])cc2)C(=O)N1Cc1ccccc1 | 0.058 | 0.055 | Activity (Protein smoothened [11]): Active; Activity (Protein smoothened [12]): Active; Activity (Protein smoothened [13]): Active; Activity (Protein smoothened [14]): Active; Activity (Protein smoothened [15]): Active
C[C@H]1C(=O)N(c2ccc(Cl)cc2)C(=S)N1Cc1ccccc1 | 3.79 |  | 
C[C@H]1C(=O)N(c2ccc(Cl)cc2)C(=O)N1CCc1ccccc1 | 0.092 |  | 
C[C@H]1C(=O)N(C2CCCCC2)C(=O)N1Cc1ccccc1 | 8.01 |  | 
C[C@H]1C(=O)N(c2ccc(Cl)cc2)C(=O)N1Cc1ccc(C2(C(F)(F)F)N=N2)cc1 |  |  | Activity [16]: inactive; inhibition (Protein smoothened [3]): inactive
C[C@H]1C(=O)N(c2ccc(Cl)cc2)C(=O)N1Cc1ccccc1 | 0.059 | 0.033 | 
